Measurements as given in patent US4153724A, “Benzoyl phenoxy acetic acid derivatives” (Kaken Chemical Co., Ltd., priority 1976, dated 1979).
Read-outs that look alike come from different tables or passages of the source.

Legend:
Rats with hyperlipidemia = assay: Test 2: antihyperlipidemic activity in rats with dietary hyperlipidemia; type: in vivo, Wister type male rats; conditions: 200 mg/kg oral, 4 days adm.
Description: The antihyperlipidemic activity in rats with dietary hyperlipidemia.
In the tests, Wister type male rats (weight: 140 g) were used in groups of 6 each.
A feed containing 2% of cholesterol, 1% of sodium cholate and 5% of cocconut oil was given for 4 days to cause hyperlipidemia.
Each active ingredient was suspended in a 1% aqueous solution of Tween 80 and the suspension was orally administrated in a dose of 100 mg/Kg or 200 mg/Kg once daily for 4 days starting with the supply of the cholesterol supplemented diet.
After 24 hours from the final administration, blood was sampled and the concentration of total cholesterols and the concentration of triglyceride were measured by the methods of Test 1.

Normal mice [1] = assay: Test 1: hypolipidemic activity in normal mice; type: in vivo, ICR type male mice; conditions: 200 mg/kg oral, 1 time adm., 24 h
Description: The hypolipidemic activity in normal mice (lowering effect of normal blood lipid level).
In the tests, ICR type male mice (weight: about 35 g) were used in groups of 6 each.
Each active ingredient was suspended in a 1% aqueous solution of Tween-80 (polyoxyethylene sorbitane monoalkylate) (Atlas Co.) and the suspension was orally administrated in a dose of 200 mg/Kg.
After 24 hours from the administration, blood was sampled and the concentration of total cholesterols in blood-plasma was measured by the method described in Clinical chemistry Vol. 22 page 393 (1968) and the concentraton of triglyceride (neutral fat) was measured by Fletcher method (Clinica Chimica Acta) Vol. 10 page 451 (1964).
As the active ingredients, the compounds (I) and ethyl-α-(p-chlorophenoxy)-isobutylate having the formula [drawing 17] were used.
The same tests for hypolipidemic activity (lowering of blood lipid level) were carried out by using the reference compounds (IV).

Test 3: acute toxicity = conditions: mouse, in vivo
Description: In the acute toxicity tests, male mice (weight: 22 to 25 g) were used in groups of 10 each.
Eash active ingredient was dissolved in olive oil and the solution was orally administrated in a volume corresponding to the body weight.
LD50 was calculated by the area method from the mortal percent after 72 hours from the administration.
The compound numbers are the same with those of Tables 1 and 2.

Normal mice [2] = assay: Test 1: hypolipidemic activity in normal mice; type: in vivo, ICR type male mice; conditions: Mus musculus, 24 h, Table 4, reference compounds (IV), 1 time adm.
[3] = found by the administration of ethyl-α-(p-chlorophenoxy)-isobutyrate; cited from earlier work
[4] = series (b), comparison with compounds 2-12 (P-control 92.0, Normal 37.6)
[5] = series (b), comparison with compounds 2-12 (P-control 260.0, Normal 57.2)
[6] = series (b), comparison with compounds 2-12 (Normal 52.0)
[7] = series (b), comparison with compounds 2-12 (Normal 69.3)
[8] = Table 3, male mice, oral in olive oil, 72 hours, read-out: LD50 oral
[9] = po, Table 4, reference compounds (IV), read-out: LD50
[10] = read-out: Total cholesterol (lowering of blood lipid level)
[11] = read-out: Triglyceride (lowering of blood lipid level)
[12] = series (a), comparison with compound 1 (P-control 141.9)
[13] = series (a), comparison with compound 1 (P-control 302.4)
[14] = series (a), comparison with compound 1 (Normal 62.6)
[15] = series (a), comparison with compound 1 (Normal 83.6)

Compound | Decrease of triglyceride (Rats with hyperlipidemia; [4]) [mg/dL] | Serum total cholesterol concentration (Rats with hyperlipidemia; [5]) [mg/dL] | Decrease of triglyceride (Normal mice [1]; [6]) [mg/dL] | Decrease of cholesterol (Normal mice [1]; [7]) [mg/dL] | LD50 at 72 h (Test 3: acute toxicity; [8]) [mg/kg] | LD50 at 72 h (Test 3: acute toxicity; [9]) [mg/kg] | inhibition in vivo at 200 mg/kg (Normal mice [2]; [10]) [%] | inhibition in vivo at 200 mg/kg (Normal mice [2]; [11]) [%] | further results
CCOC(=O)C(Oc1ccc(C(=O)c2ccc(C)cc2)cc1)C1CCCCC1 (centres unmarked) [Invention Compound 9, Ethyl 2-[p-(4-methylbenzoyl)-phenoxy]-cyclohexyl acetate] | 58.5 ± 6.7 | 188.7 ± 18.4 | 56.9 ± 6.1 | 59.1 ± 3.4 | 3500 |  |  |  | 
CCOC(=O)C(Oc1ccc(C(=O)c2cccc(F)c2)cc1)C1CCCCC1 (centres unmarked) [Invention Compound 5] | 90.3 ± 16.8 | 147.5 ± 8.3 | 60.0 ± 4.2 | 54.5 ± 2.6 | 3500 |  |  |  | 
CCOC(=O)C(Oc1ccc(C(=O)c2ccc(Cl)cc2)cc1)c1ccccc1 (centres unmarked) [compound 11, Ethyl 2-[p-(4-chlorobenzoyl)-phenoxy]phenyl acetate] |  |  |  |  |  | 3000 | 24 | 52 | 
CCOC(=O)C(Oc1ccc(C(=O)c2cccc(C)c2)cc1)C1CCCCC1 (centres unmarked) [Invention Compound 10] | 73.6 ± 10.0 | 196.1 ± 13.2 |  |  | 3000 |  |  |  | 
CCOC(=O)C(Oc1ccc(C(=O)c2ccc(OC)cc2)cc1)C1CCCCC1 (centres unmarked) [Invention Compound 4] | 88.7 ± 8.9 | 187.0 ± 18.1 | 38.2 ± 2.5 | 51.9 ± 2.6 | 2500 |  |  |  | 
CCOC(=O)C(Oc1ccc(C(=O)c2ccccc2Cl)cc1)c1ccccc1 (centres unmarked) [compound 7, Ethyl 2-[p-(2-chlorobenzoyl)-phenoxy]phenyl acetate] |  |  |  |  |  | > 10000 | 16 | 8 | 
CCOC(=O)C(Oc1ccc(C(=O)c2ccccc2C)cc1)C1CCCCC1 (centres unmarked) [Invention Compound 11] | 89.4 ± 7.7 | 203.5 ± 12.1 |  |  | 700 |  |  |  | 
CCOC(=O)C(Oc1ccc(C(=O)c2ccccc2F)cc1)C1CCCCC1 (centres unmarked) [Invention Compound 6] | 89.2 ± 15.6 | 243.0 ± 6.1 |  |  | 1000 |  |  |  | 
CCOC(=O)C(Oc1ccc(C(=O)c2ccccc2)cc1)C1CCCCC1 (centres unmarked) [Invention Compound 3] | 81.6 ± 7.3 | 211.0 ± 5.5 | 60.1 ± 2.8 | 66.6 ± 1.9 | 1000 |  |  |  | 
O=C(c1ccccc1)c1ccc(OC(C(=O)O)c2ccccc2)cc1 (centres unmarked) [compound 20] |  |  |  |  |  | > 3000 | 19 | 7 | 
CCOC(=O)C(Oc1ccc(C(=O)c2ccc(F)cc2)cc1)C1CCCCC1 (centres unmarked) [Invention Compound 2, Ethyl-2-[p-(4-fluorobenzoyl)-phenoxy]-cyclohexyl acetate] | 88.5 ± 12.3 | 215.3 ± 6.7 |  |  | 1000 |  |  |  | 
CCOC(=O)C(Oc1ccc(C(=O)c2cccc(F)c2)cc1)c1ccccc1 (centres unmarked) [compound 3] |  |  |  |  |  | 2000 | 16 | 19 | 
CCOC(=O)C(Oc1ccc(C(=O)c2ccc(Cl)cc2)cc1)C1CCCCC1 (centres unmarked) [Invention Compound 1, Ethyl 2-[p-(4-chlorobenzoyl)-phenoxy]-cyclohexyl acetate] |  |  |  |  | 2500 |  |  |  | Decrease of triglyceride (Rats with hyperlipidemia; [12]): 69.7 ± 13.8 mg/dL; Serum total cholesterol concentration (Rats with hyperlipidemia; [13]): 126.5 ± 8.1 mg/dL; Decrease of triglyceride (Normal mice [1]; [14]): 52.2 ± 7.6 mg/dL; Decrease of cholesterol (Normal mice [1]; [15]): 59.4 ± 4.8 mg/dL
Cc1ccccc1C(=O)c1ccc(OC(C(=O)O)c2ccccc2)cc1 (centres unmarked) [compound 14, 2-[P-(2-methylbenzoyl)-phenoxy]phenyl acetic acid] |  |  |  |  |  |  | 21 | 2 | 
CCOC(=O)C(C)(C)Oc1ccc(Cl)cc1 [***, ethyl-α-(p-chlorophenoxy)-isobutylate, reference compound] | 62.5 ± 9.5 | 258.5 ± 16.0 | 46.8 ± 3.5 | 55.4 ± 3.1 | 1500 |  | 15 | 10 | Decrease of triglyceride (Rats with hyperlipidemia; [12]): 80.9 ± 17.8 mg/dL; Serum total cholesterol concentration (Rats with hyperlipidemia; [13]): 285.5 ± 25.3 mg/dL; Decrease of triglyceride (Normal mice [1]; [14]): 46.6 ± 7.3 mg/dL; Decrease of cholesterol (Normal mice [1]; [15]): 69.0 ± 5.3 mg/dL; hepatic disease (hepatitis) [3]: found
CCOC(=O)C(Oc1ccc(C(=O)c2ccc(F)cc2)cc1)c1ccccc1 (centres unmarked) [compound 5] |  |  |  |  |  | 1500 | 21 | 1 | 
CCOC(=O)C(Oc1ccc(C(=O)c2ccccc2C)cc1)c1ccccc1 (centres unmarked) [compound 13, ethyl 2-[p-(2-methylbenzoyl)-phenoxy] phenyl acetate] |  |  |  |  |  | > 2000 | 27.7 | 41.9 | 
CCOC(=O)C(Oc1ccc(C(=O)c2ccccc2Cl)cc1)C1CCCCC1 (centres unmarked) [Invention Compound 8] | 75.6 ± 8.3 | 185.4 ± 7.1 |  |  | 1000 |  |  |  | 
CCOC(=O)C(Oc1ccc(C(=O)c2cccc(Cl)c2)cc1)C1CCCCC1 (centres unmarked) [Invention Compound 7, Ethyl 2-[p-(3-chlorobenzoyl)-phenoxy]-cyclohexyl acetate] | 52.1 ± 9.0 | 123.8 ± 9.1 | 45.5 ± 5.4 | 56.4 ± 5.1 | 2500 |  |  |  | 
CCOC(=O)C(Oc1ccc(C(=O)c2ccccc2F)cc1)c1ccccc1 (centres unmarked) [compound 1] |  |  |  |  |  | 1500 | 18 | 36 | 
